{"source": "patent US7109296B2", "about": "“Human 5-HT3-C protein” (Ortho-McNeil Pharmaceutical, Inc., priority 1999, dated 2006)", "type_in_all_cases": "cell-based", "key": {"[1]": {"molecular_target": "T1, human 5-HT3-A(short) receptor (Homo sapiens, UniProt P46098)", "T1 sequence (P46098 24-478)": "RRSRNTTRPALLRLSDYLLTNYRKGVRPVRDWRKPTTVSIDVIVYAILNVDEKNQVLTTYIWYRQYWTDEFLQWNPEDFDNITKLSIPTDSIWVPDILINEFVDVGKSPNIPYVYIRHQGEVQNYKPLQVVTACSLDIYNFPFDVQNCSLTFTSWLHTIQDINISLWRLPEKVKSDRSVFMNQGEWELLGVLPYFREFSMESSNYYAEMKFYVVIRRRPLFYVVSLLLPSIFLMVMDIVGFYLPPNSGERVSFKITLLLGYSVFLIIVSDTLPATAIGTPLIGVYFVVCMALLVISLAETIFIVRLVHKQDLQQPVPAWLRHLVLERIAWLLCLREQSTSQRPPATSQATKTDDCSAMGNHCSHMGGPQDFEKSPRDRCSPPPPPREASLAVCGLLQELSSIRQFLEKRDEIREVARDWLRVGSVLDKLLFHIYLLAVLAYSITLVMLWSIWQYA", "experiment": "Two-electrode voltage clamp, oocytes expressing 5-HT3-A(short) homomeric receptors"}, "5-HT3-A receptors": {"molecular_target": "T2, 5-HT3-A receptors (Homo sapiens, UniProt P46098)", "T2 sequence (P46098 24-478)": "T1 sequence (P46098 24-478)", "experiment": "FLIPR DiBAC control, cells stably expressing 5-HT3-A receptors", "conditions": "control for the DIBAC; increase in fluorescence"}, "[2]": {"molecular_target": "T3, human 5-HT3-A(short) together with 5-HT3-C (Homo sapiens, UniProt P46098)", "T3 construct": "Characterization of the Function of Protein Encoded by p5HT3CR in Xenopus oocvtes; expressed in transfected cells; host or cells: Xenopus laevis oocytes co-injected with cRNAs", "T3 sequence (P46098 24-478)": "T1 sequence (P46098 24-478)", "experiment": "Two-electrode voltage clamp, oocytes co-injected with 5-HT3-A(short) and 5-HT3-C", "protocol": "Characterization of the Function of Protein Encoded by p5HT3CR in Xenopus oocvtes Xenopus laevis oocytes were prepared and injected using standard methods previously described and known in the art (Fraser et al., 1993). Ovarian lobes from adult female Xenopus laevis (Nasco, Fort Atkinson, Wis.) were teased apart, rinsed several times in nominally Ca-free saline containing (in mM): NaCl 82.5, KCl 2.5, MgCl2 1, HEPES 5, adjusted to pH 7.0 with NaOH(OR-2), and gently shaken in OR-2 containing 0.2% collagenase Type 1 (ICN Biomedicals, Aurora, Ohio) for 2–5 hours. When approximately 50% of the follicular layers were removed, Stage V and VI oocytes were selected and rinsed in media consisting of 75% OR-2 and 25% ND-96. The ND-96 contained (in mM): NaCl 100, KCl 2, MgCl2 1, CaCl2 1.8, HEPES 5, Na pyruvate 2.5, gentamicin (50 ug/ml), adjusted to pH 7.0 with NaOH. […] For in vitro transcription, pGEM HE (Liman et al., 1992) containing human 5-HT3-A (Genbank D49394) or 5-HT3-C cDNA was linearized with NheI and transcribed with T7 RNA polymerase (Stratagene) in the presence of the cap analog m7G(5′)ppp(5′)G. The synthesized cRNA was purified with a Sephadex G-50 spin column. […] Control oocytes were injected with 50 nl of water. Oocytes were incubated for 2–14 days in ND-96 before analysis for expression of the human 5-HT3-C. Incubations and collagenase digestion were carried out at room temperature. Injected oocytes were maintained in 48 well cell culture clusters (Costar, Cambridge, Mass.) at 18° C. Whole cell agonist-induced currents were measured 1–14 days after injection with a conventional two-electrode voltage clamp (GeneClamp500, Axon Instruments, Foster City, Calif.) using standard methods previously described and known in the art (Dascal, 1987). The microelectrodes were filled with 3 M KCl, which had resistances of 1 and 2 MΩ. Cells were continuously perfused with ND96 at 10 ml/min at room temperature unless indicated. Membrane voltage was clamped at −70 mV unless indicated.\nFunctional expression of human serotonin 5-HT3 receptor modifier subunit 5-HT3-C together with the human short form of the 5-HT3-A receptor (Genbank accession # D49394) in Xenopus oocytes is shown in FIGS. 4 and 5. Agonist was applied during the time indicated by the horizontal bar above the record. […] As a positive control for translation and surface expression, all oocytes were co-injected with a Shaker potassium channel N-terminal deletion mutant that lacks fast inactivation. […] Oocytes were continuously perfused with Ba^2+ containing ND96 at a rate of 10 ml/min at room temperature. Time scale bar: 25 sec. Similar results were obtained in experiments in which oocytes were bathed in Ca^2+ containing ND96."}}}
{"smiles": "NCCc1c[nH]c2ccc(O)cc12", "note": "[5-HT, 5-hydroxytryptamine]", "values": [{"measurement": "peak currents to 5-HT", "setting": "[1]; 5-HT3-A(short)-expressing oocytes, comparison for 2:1 ratio, n=19", "result": "−1.65+/−0.42 nA"}, {"measurement": "Responses to 5-HT", "setting": "[1]; 10 LM 5-HT, 5-HT3-A(short)-injected oocytes (0.33 ng), n=6", "result": "−3.89+/−0.76 nA"}, {"measurement": "DiBAC membrane potential response", "setting": "5-HT3-A receptors", "result": "fast transient depolarization"}, {"measurement": "peak response to 5-HT", "setting": "[2]; 10 μM 5-HT, 2-fold more 5-HT3-C cRNA (0.67 ng), control = 5-HT3-A homomeric", "result": "about 10 % of control"}, {"measurement": "effect of 5-HT3-C on 5-HT response", "setting": "[2]; 1:1 ratio, n=6", "result": "little effect"}, {"measurement": "5-HT response diminished", "setting": "[2]; 1.8×fold 5-HT3-C to 5-HT3-A cRNA concentration, n=3", "result": "about 20%"}, {"measurement": "peak currents to 5-HT", "setting": "[2]; 5-HT3-C and 5-HT3-A(short) at a ratio of 2:1, n=20", "result": "−0.028+/−0.007 nA"}, {"measurement": "sensitivity of oocytes to 5-HT", "setting": "[2]; 5-HT3-C:5-HT3-A(short) 10:1", "result": "essentially insensitive"}, {"measurement": "Responses to 5-HT", "setting": "[2]; 10 LM 5-HT, 5-HT3-C:5-HT3-A(short) 10:1 (3.35 ng : 0.33 ng), n=6", "result": "−0.010+/−0.008 nA"}]}
